Laboratory results reported in ChEMBL document CHEMBL1151740, “Structurally constrained hybrid derivatives containing octahydrobenzo[g or f]quinoline moieties for dopamine D2 and D3 receptors: binding characterization at D2/D3 receptors and elucidation of a pharmacophore model” (J Med Chem, 2008).

Legend:
[1] = target: D(2) dopamine receptor (Rattus norvegicus, UniProt P61169); assay: Displacement of [3H]Spiperone from rat dopamine D2L receptor expressed in HEK293 cells; assay type: cell-based
[2] = target: D(3) dopamine receptor (Rattus norvegicus, UniProt P19020); assay: Displacement of [3H]Spiperone from rat dopamine D3 receptor expressed in HEK293 cells; assay type: cell-based
Chain of D(3) dopamine receptor (P19020 whole entry): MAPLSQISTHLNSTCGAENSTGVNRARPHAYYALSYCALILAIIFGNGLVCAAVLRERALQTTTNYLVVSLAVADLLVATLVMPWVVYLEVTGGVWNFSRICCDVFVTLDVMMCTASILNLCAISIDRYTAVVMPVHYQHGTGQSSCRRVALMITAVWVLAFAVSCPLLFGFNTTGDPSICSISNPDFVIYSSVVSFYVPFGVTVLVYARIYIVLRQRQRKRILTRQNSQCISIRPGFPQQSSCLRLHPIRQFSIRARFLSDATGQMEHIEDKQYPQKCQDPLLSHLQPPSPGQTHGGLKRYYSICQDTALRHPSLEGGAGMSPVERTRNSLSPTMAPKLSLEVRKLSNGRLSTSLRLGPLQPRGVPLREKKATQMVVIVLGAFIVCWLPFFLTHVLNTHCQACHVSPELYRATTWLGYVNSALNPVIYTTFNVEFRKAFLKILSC

Chain of D(2) dopamine receptor (P61169 whole entry): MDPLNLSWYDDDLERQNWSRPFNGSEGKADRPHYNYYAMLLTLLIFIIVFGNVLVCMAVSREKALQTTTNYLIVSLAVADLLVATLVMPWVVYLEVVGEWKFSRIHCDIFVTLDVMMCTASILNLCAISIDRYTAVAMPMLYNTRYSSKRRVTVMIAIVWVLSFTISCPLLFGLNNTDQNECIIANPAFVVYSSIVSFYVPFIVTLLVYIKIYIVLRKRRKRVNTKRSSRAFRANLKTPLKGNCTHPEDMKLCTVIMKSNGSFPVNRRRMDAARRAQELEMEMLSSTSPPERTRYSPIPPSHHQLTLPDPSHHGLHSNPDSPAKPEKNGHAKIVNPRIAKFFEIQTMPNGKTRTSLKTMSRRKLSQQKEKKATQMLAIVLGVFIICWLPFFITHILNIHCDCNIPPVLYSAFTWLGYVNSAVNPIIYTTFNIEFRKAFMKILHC

SMILES: Oc1cccc2c1CC[C@@H]1[C@@H]2CCCN1CCN1CCN(c2ccccc2)CC1
- Ki [1]: 835 nM
- Ki [2]: 89.3 nM

SMILES: CCCN(CCN1CCN(c2ccccc2)CC1)[C@H]1CCc2nc(N)sc2C1
- Ki [1]: 243 nM
- Ki [2]: 4.15 nM

SMILES: Oc1ccc2c(c1)[C@@H]1CCCN(CCN3CCN(c4ccccc4)CC3)[C@H]1CC2
- Ki [1]: 219 nM
- Ki [2]: 72.2 nM

SMILES: Oc1ccc2c(c1)C[C@@H]1[C@@H](CCCN1CCN1CCN(c3cccc(Cl)c3Cl)CC1)C2 (racemic)
- Ki [1]: 148 nM
- Ki [2]: 187 nM

SMILES: Oc1ccc2c(c1)C[C@H]1[C@@H](CCCN1CCN1CCN(c3cccc(Cl)c3Cl)CC1)C2 (racemic)
- Ki [1]: 338 nM
- Ki [2]: 256 nM

SMILES: CCCN1CCC[C@H]2c3cccc(O)c3CC[C@@H]21 (relative stereo)
- Ki [1]: 347 nM
- Ki [2]: 96 nM

SMILES: Oc1cccc2c1C[C@@H]1CCCN(CCN3CCN(c4ccccc4)CC3)[C@H]1C2 (racemic)
- Ki [1]: 1710 nM
- Ki [2]: 736 nM

SMILES: Oc1cccc2c1C[C@@H]1CCCN(CCN3CCN(c4cccc(Cl)c4Cl)CC3)[C@H]1C2 (racemic)
- Ki [1]: 136 nM
- Ki [2]: 168 nM

SMILES: Oc1ccc2c(c1)C[C@H]1[C@@H](CCCN1CCN1CCN(c3ccccc3)CC1)C2 (racemic)
- Ki [1]: 2520 nM
- Ki [2]: 473 nM

SMILES: Oc1ccc2c(c1)C[C@H]1[C@@H](CCCN1CCCCN1CCN(c3ccccc3)CC1)C2 (racemic)
- Ki [1]: 289 nM
- Ki [2]: 102 nM

SMILES: CCCN(CCN1CCN(c2ccccc2)CC1)[C@H]1CCc2ccc(O)cc2C1
- Ki [1]: 809 nM
- Ki [2]: 38.6 nM

SMILES: Oc1cccc2c1CC[C@H]1[C@H]2CCCN1CCN1CCN(c2ccccc2)CC1
- Ki [1]: 23.6 nM
- Ki [2]: 4.95 nM

SMILES: CCCN(CCN1CCN(c2ccccc2)CC1)[C@@H]1CCc2nc(N)sc2C1
- Ki [1]: 1980 nM
- Ki [2]: 44 nM

SMILES: CCCN1CCC[C@@H]2Cc3c(O)cccc3C[C@H]21 (racemic)
- Ki [1]: 2780 nM
- Ki [2]: 395 nM

SMILES: CCCN(CCN1CCN(c2ccc(-c3ccccc3)cc2)CC1)[C@H]1CCc2nc(N)sc2C1
- Ki [1]: 234 nM
- Ki [2]: 0.925 nM
